System: S. gordonii biofilms
Assay: adapted spinning-disc rheometry analysis of biofilm detachment
Type: cell-based, Streptococcus gordonii
Conditions: for biofilm momentum coefficient (CB): 200-300 rad·s^−1, vs untreated; for area under the curve (AUC) of the torque-angular velocity curves: whole analyzed range
Procedure: Spinning-disc rheology was adapted to analyze biofilm detachment from surfaces. S. gordonii biofilms were grown on 3D printed coupons for 5 days. The model for the coupons was designed in SolidWorks (Dassault Systèmes). Coupons were 3D printed using a Prime 30 PolyJet 3D printer (Objet, Stratasys) using RGD720 photopolymer for the printing material (Stratasys). The coupon was printed at a resolution of 0.0008 inches. The coupon surface was sanded used P300 sandpaper to create a rougher surface for bacteria to attach. Prior to inoculating, coupons were sterilized in 70% ethanol.
S. gordonii wild type strain DL1 was used in this study. Overnight cultures were prepared by inoculating 10 mL of brain heart infusion broth (Oxoid; BHI) with a colony of S. gordonii and incubated statically overnight at 37° C. with 5% CO2. Sterile 40 mm coupons were placed in a Petri dish containing 40 mL BHI, supplemented with 0.5% sucrose. Coupons were inoculated with 400 μL of overnight culture. Biofilms were incubated in a humidified chamber at 37° C. with 5% CO2, on an orbital shaker at 150 rpm. Every 24 h the media was replenished. […]
Biofilms were analyzed on a Discovery Hybrid Rheometer-2 (HD-2) (TA Instruments). A 15×15 cm square clear acrylic container filled with 2.8 L reverse osmosis water was transferred onto the Peltier plate. Biofilm-coated coupons were immersed and attached to the rheometer shaft using a custom-made adapter probe. The gap distance between the bottom of the container and the coupon was set to 3.5 cm (FIG. 1). Immersed coupons were spun at an angular velocity (ω) range of 0.1-300 rad·s^−1, incrementing the speed over 360 seconds, and the resulting torque (T), a measurement of resistance to rotation, was measured across this velocity range.
Data was collected using TRIOS v5 software (TA instruments), with raw data exported in excel. Data was transformed, and calculations performed in excel. Data was visualized and statistical analysis performed in GraphPad Prism v8 (GraphPad Software). All statistical comparisons were performed using a Student's t-test, with p<0.05 indicating significance.
To more easily observe the changes in torque associated with biofilm detachment, the torque-angular velocity data was linearized and transformed. The data was linearized by taking the square root of the torque. The running slope of 5 data points of the linearized data was determined. […] Therefore, final transformed data is presented as the running slope of the linearized data against angular velocity, starting at 20 rad·s^−1.
Five day S. gordonii biofilms were treated with either PBS (untreated control) or 4% arginine for 2 min. […] After treatment, Biofilms were analyzed on a Discovery Hybrid Rheometer-2 (HD-2) (TA Instruments) as described above. Four biological replicates were analyzed, each with 2-4 technical replicates (total N=11).
To quantify the mechanical differences between arginine treated and untreated S. gordonii biofilms, the biofilm momentum coefficient (CB) across the turbulent regimes of 200-300 rad·s^−1 was determined according to equation 1: […]
To quantify these differences, the angular velocity where the first reduction in torque occurred was converted to the shear stress acting on the outer edge of the coupon, according to equation 3.
Next, the biofilm disrupting effect of arginine was compared with that of glycine and lysine by the spinning-disc rheometry assay to determine if biofilm disrupting effect is a general property of amino acids, or specific to arginine.

[1] = 5 day S. gordonii biofilms, 4% arginine for 2 min, vs PBS untreated control
[2] = 5 day S. gordonii biofilms, 4% arginine for 2 min, vs untreated
[3] = Seven day S. gordonii biofilms, 4% arginine or 0.23M glycine or lysine for 2 min, equation 3, vs untreated
[4] = Seven day S. gordonii biofilms, 4% arginine or 0.23M glycine or lysine for 2 min, vs untreated

SMILES: N=C(N)NCCC[C@H](N)C(=O)O [arginine]
- torque across angular velocity range (5 day S. gordonii biofilms, 4% arginine for 2 min, 0.1-300 rad·s^−1, vs untreated): reduced torque
- biofilm momentum coefficient (CB) (5 day S. gordonii biofilms, 4% arginine for 2 min): no statistical difference
- shear stress at the first reduction in torque (initiation of detachment) (5 day S. gordonii biofilms, 4% arginine for 2 min, equation 3, vs untreated): significantly lower shear stresses
- angular velocity at which changes in torque associated with biofilm detachment events occurred (5 day S. gordonii biofilms, 4% arginine for 2 min, transformed analysis, vs untreated): lower angular velocity ranges
- amount of remaining biofilm attached to the coupon after rheometry analysis [1]: did not appear to affect
- biofilm morphology (macroscopic) [1]: did not appear to affect
- changes in torque in transformed data (running slope of torque^1/2 vs angular velocity) [2]: greater changes in torque
- area under the curve (AUC) of the torque-angular velocity curves [2]: significantly reduced AUC
- biofilm momentum coefficient (CB) (Seven day S. gordonii biofilms, 4% arginine or 0.23M glycine or lysine for 2 min): significantly lower
- shear stress at the first reduction in torque (detachment shear stress) [3]: significantly lower shear stresses
- torque (torque-displacement profile) [4]: reduced torque
- area under the curve (AUC) of the torque-angular velocity curves [4]: significantly reduced AUC

SMILES: NCCCC[C@H](N)C(=O)O [lysine, reference compound]
- shear stress at the first reduction in torque (detachment shear stress) [3]: no significant difference
- area under the curve (AUC) of the torque-angular velocity curves [4]: no significant differences

SMILES: NCC(=O)O [glycine, reference compound]
- shear stress at the first reduction in torque (detachment shear stress) [3]: no significant difference
- area under the curve (AUC) of the torque-angular velocity curves [4]: no significant differences

Reference: US20240150809A1, “Method of Evaluating the Biofilm Detachment Efficacy of Compositions” (Colgate-Palmolive Company, priority 2021, published 2024)
